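All cell lines were grown in 96-well plates and treated with compound for 48 hours. GI50 = concentration required for 50% inhibition of growth. The concentration for full growth arrest is given as TGI.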
Columns and labels:
Test in all cases: inhibition of tumour cell growth, NCI panel, 48 h
PC-3 prostate = tested on: PC-3 prostate
MDA-MB-435 = tested on: MDA-MB-435
CCRF-CEM leukemia = tested on: CCRF-CEM leukemia
786-0 renal = tested on: 786-0 renal
TK-10 renal = tested on: TK-10 renal
A498 renal = tested on: A498 renal
IGROV1 ovarian = tested on: IGROV1 ovarian
DMS 273 small cell lung = tested on: DMS 273 small cell lung
KM20L2 colon = tested on: KM20L2 colon
DLD-1 colon = tested on: DLD-1 colon
LXFL 529 NSCLC = tested on: LXFL 529 NSCLC
SNB-78 CNS = tested on: SNB-78 CNS

Compound C[C@H]1C(=O)O[C@@H]2CCN3CC=C(COC(=O)[C@](C)(O)[C@@]1(C)O)[C@H]23 has a TGI (PC-3 prostate) of over 100 µM, a TGI (MDA-MB-435) of over 100 µM and a TGI (CCRF-CEM leukemia) of over 100 µM. The TGI (786-0 renal) was over 100 µM, the TGI (TK-10 renal) was over 100 µM and the TGI (A498 renal) was over 100 µM. For the same compound, the TGI (IGROV1 ovarian) was over 100 µM.

With CC(=O)NNc1nc(-c2ccc([N+](=O)[O-])cc2)c(C#N)c(=O)n1C the TGI (PC-3 prostate) was over 100 µM, the TGI (MDA-MB-435) was over 100 µM and the TGI (CCRF-CEM leukemia) was over 100 µM. For the same compound, the TGI (786-0 renal) was 47 µM, the TGI (TK-10 renal) was 72.8 µM and the TGI (A498 renal) was 75.5 µM. For the same compound, the TGI (IGROV1 ovarian) was 35 µM.

CN(C)C(=O)/C=C/c1c[nH]c(=O)[nH]c1=O gave a TGI (CCRF-CEM leukemia) of over 500 µM, a TGI (A498 renal) of over 500 µM and a TGI (DMS 273 small cell lung) of over 500 µM. It also gave a TGI (KM20L2 colon) of over 500 µM, a TGI (IGROV1 ovarian) of over 500 µM and a TGI (DLD-1 colon) of over 500 µM.

Compound COc1ccc(C2=C3SC=c4ccccc4=C3ON=C2c2ccccc2)cc1 has a TGI (PC-3 prostate) of over 100 µM, a TGI (MDA-MB-435) of over 100 µM and a TGI (CCRF-CEM leukemia) of over 100 µM. The TGI (786-0 renal) was over 100 µM, the TGI (TK-10 renal) was over 100 µM and the TGI (A498 renal) was over 100 µM. For the same compound, the TGI (IGROV1 ovarian) was over 100 µM.

For Cc1cccc2c1Sc1ccccc1C2NC(=O)CCN(C)C (stereo unspecified), the TGI (CCRF-CEM leukemia) was over 100 µM, the TGI (LXFL 529 NSCLC) was over 100 µM and the TGI (TK-10 renal) was over 100 µM. The TGI (DMS 273 small cell lung) was over 100 µM, the TGI (SNB-78 CNS) was over 100 µM and the TGI (KM20L2 colon) was over 100 µM. It also gave a TGI (IGROV1 ovarian) of over 100 µM and a TGI (DLD-1 colon) of over 100 µM.

O=C(Nc1ccc([N+](=O)[O-])cc1[N+](=O)[O-])C(=O)C(C(=O)c1ccc2ccccc2c1)C1OC(=O)c2ccccc21 (stereo unspecified) gave a TGI (CCRF-CEM leukemia) of 32.4 µM, a TGI (LXFL 529 NSCLC) of 26 µM and a TGI (TK-10 renal) of 61.7 µM. The TGI (A498 renal) was 52.7 µM, the TGI (DMS 273 small cell lung) was 61.4 µM and the TGI (SNB-78 CNS) was 82.5 µM. The TGI (KM20L2 colon) was 61.9 µM, the TGI (IGROV1 ovarian) was 43.5 µM and the TGI (DLD-1 colon) was 81.4 µM.

CN(C)CCNC(=O)c1cccc2ccc(-c3ccc(F)cc3)nc12 was tested, and the TGI (CCRF-CEM leukemia) was 15.8 µM, the TGI (A498 renal) was 17.5 µM and the TGI (DMS 273 small cell lung) was 11.8 µM. The TGI (SNB-78 CNS) was 31.4 µM, the TGI (KM20L2 colon) was 20.4 µM and the TGI (IGROV1 ovarian) was 20.3 µM. For the same compound, the TGI (DLD-1 colon) was 17.9 µM.

With COc1cc(C2CC(c3cccc(Nc4ccncc4)c3)=NN2c2ccc(Cl)cc2)cc(OC)c1OC (stereo unspecified) the GI50 (PC-3 prostate) was 1.4 µM, the TGI (PC-3 prostate) was 3 µM and the GI50 (MDA-MB-435) was 1.62 µM. The TGI (MDA-MB-435) was 3.08 µM, the GI50 (CCRF-CEM leukemia) was 2.39 µM and the TGI (CCRF-CEM leukemia) was 6.71 µM. The GI50 (A498 renal) was 1.32 µM and the TGI (A498 renal) was 6.26 µM.

Compound N=C1C(=N)c2ccccc2-c2ccccc21.N=C1C(=N)c2ccccc2-c2ccccc21.N=C1C(=N)c2ccccc2-c2ccccc21.[Cl-].[Ru+2] has a GI50 (LXFL 529 NSCLC) of 1.61 µM, a TGI (LXFL 529 NSCLC) of 3.08 µM and a TGI (786-0 renal) of 28.5 µM. For the same compound, the GI50 (DMS 273 small cell lung) was 2.15 µM, the TGI (DMS 273 small cell lung) was 5.45 µM and the GI50 (SNB-78 CNS) was 1.65 µM. The TGI (SNB-78 CNS) was 3.88 µM, the GI50 (KM20L2 colon) was 5.37 µM and the TGI (KM20L2 colon) was 13.2 µM. For the same compound, the TGI (IGROV1 ovarian) was 5.01 µM.

O=P1(c2ccccc2)Nc2ccccc2SSc2ccccc2N1 showed a TGI (CCRF-CEM leukemia) of 62.8 µM, a TGI (A498 renal) of 41.2 µM and a TGI (DMS 273 small cell lung) of 33.7 µM. The TGI (SNB-78 CNS) was 56.3 µM, the TGI (KM20L2 colon) was 33.7 µM and the TGI (IGROV1 ovarian) was 38.2 µM. It also gave a TGI (DLD-1 colon) of 31.8 µM.

COc1ccc2c(c1)CCCN2CCCCCCCCCCN(CCC(C)C)CCC(C)C was tested, and the TGI (CCRF-CEM leukemia) was 32.9 µM, the TGI (LXFL 529 NSCLC) was 21.8 µM and the TGI (786-0 renal) was 27.5 µM. The TGI (TK-10 renal) was 31.9 µM, the TGI (A498 renal) was 31 µM and the TGI (DMS 273 small cell lung) was 23.2 µM. The TGI (SNB-78 CNS) was 38.1 µM, the TGI (KM20L2 colon) was 23.1 µM and the TGI (IGROV1 ovarian) was 27.7 µM. It also gave a TGI (DLD-1 colon) of 22.6 µM.

COc1ccc(/C(Cl)=C(\C=O)c2ccc(OC)cc2)cc1 showed a TGI (CCRF-CEM leukemia) of over 100 µM, a TGI (LXFL 529 NSCLC) of over 100 µM and a TGI (TK-10 renal) of over 100 µM. For the same compound, the TGI (A498 renal) was over 100 µM, the TGI (DMS 273 small cell lung) was over 100 µM and the TGI (SNB-78 CNS) was over 100 µM. The TGI (KM20L2 colon) was over 100 µM, the TGI (IGROV1 ovarian) was over 100 µM and the TGI (DLD-1 colon) was over 100 µM.

CCCOC(=O)CNC(=O)OC(C)(C)C gave a TGI (CCRF-CEM leukemia) of over 100 µM, a TGI (LXFL 529 NSCLC) of over 100 µM and a TGI (TK-10 renal) of over 100 µM. For the same compound, the TGI (DMS 273 small cell lung) was over 100 µM, the TGI (SNB-78 CNS) was over 100 µM and the TGI (KM20L2 colon) was over 100 µM. It also gave a TGI (IGROV1 ovarian) of over 100 µM and a TGI (DLD-1 colon) of over 100 µM.

For NCCc1cc(O)c(O)cc1O, the TGI (PC-3 prostate) was over 100 µM, the TGI (MDA-MB-435) was 32.7 µM and the TGI (CCRF-CEM leukemia) was 23.6 µM. The TGI (786-0 renal) was over 69.1 µM, the TGI (TK-10 renal) was over 100 µM and the TGI (A498 renal) was over 100 µM. The TGI (IGROV1 ovarian) was 38.2 µM.

With CCOC(=O)c1c2c(n(Cc3ccccc3)c1C)C(=O)C(=O)c1ccccc1-2 the TGI (PC-3 prostate) was 5.14 µM, the TGI (MDA-MB-435) was 0.112 µM and the TGI (786-0 renal) was 1.49 µM. For the same compound, the TGI (TK-10 renal) was 1.18 µM, the GI50 (A498 renal) was 2.84 µM and the TGI (A498 renal) was 5.67 µM. It also gave a TGI (IGROV1 ovarian) of over 100 µM.

Nc1n[nH]c(=O)c2c1c(I)cn2C1OC(CO)C(O)C1O (stereo unspecified) gave a TGI (CCRF-CEM leukemia) of 4.12 µM, a TGI (LXFL 529 NSCLC) of over 100 µM and a TGI (TK-10 renal) of over 100 µM. The TGI (A498 renal) was over 100 µM, the TGI (DMS 273 small cell lung) was 2.63 µM and the TGI (SNB-78 CNS) was 6.8 µM. It also gave a TGI (KM20L2 colon) of over 100 µM, a TGI (IGROV1 ovarian) of over 100 µM and a TGI (DLD-1 colon) of over 100 µM.

Source: PubChem BioAssay (NCI)
